According to ChEMBL document CHEMBL5727340, “Substituted nucleoside derivatives useful as anticancer agents” (2019):

Assay: PRMT5 assay: Compounds were solubilized in DMSO and serially diluted, using 3-fold dilutions, into 100% DMSO at a concentration 50-fold greater than the desired assay concentration. Following dilution, 1 ul was added to an empty 96-well microtiter plate. PRMT5/MEP50 protein complex was combined with H4(1-21) peptide ([…]) in PRMT5 assay buffer (50 mM Tris pH 8.5, 50 mM NaCl, 5 mM MgCl2, 1 mM EDTA, 1 mM TCEP) and 44 ul was added to the microtiter plate containing compound. S-Adenosyl-L-methionine (SAM) was prepared by combining 3H labelled SAM with unlabelled SAM in PRMT5 assay buffer such that the final SAM concentration was 10 uM and the specific activity was 0.2 uCi/ul. The reaction was initiated by adding 5 ul of SAM stock to the microtiter plate. The final reaction conditions were 10 nM PRMT5/MEP50 complex, 200 nM peptide and 1 uM SAM. Following a 25 minute incubation at room temperature, the reaction was stopped with the addition of 100 uL of 20% TCA. The 3H-peptide product was captured using a 96-well filter plate (MSIPN4B, Millipore) and washed 5 times with PBS buffer. Scintillation fluid (100 ul) was added to the dried filter plate and counted in a liquid scintillation counter. IC50 values were determined by fitting the data to the standard 4-parameter dose response equation using Pfizer proprietary software.

Compound | IC50 [nM]
Cc1ncnc2c1ccn2[C@@H]1O[C@@H](C(C)O)[C@H]2OC(C)(C)O[C@H]21 (some centres undefined) | 1730
Cc1ncnc2c1ccn2[C@@H]1O[C@H]([C@H](O)c2ccc3ccn(C)c3c2)[C@@H](O)[C@H]1O | 10
Cc1ncnc2c1ccn2[C@@H]1O[C@@H](C(C)(C)O)[C@H]2OC(C)(C)O[C@H]21 | 3240
Cc1ncnc2c1ccn2[C@@H]1O[C@H]([C@@H](O)c2cccc(F)c2)[C@@H](O)[C@H]1O | 2640
